System: MV-4-11 cells
Assay: Gene expression microarray analysis (Affymetrix PrimeView) and GSEA
Assay type: cell-based, human
Set-up: RFU PODN (11730768_x_at) / Fold change /veh PODN (11730768_x_at) / RFU LINC00158 (11744669_a_at) / Fold change /veh LINC00158 (11744669_a_at) / RFU DUSP10 (11751237_a_at) / Fold change /veh DUSP10 (11751237_a_at) / RFU ID3 (11757404_x_at) / Fold change /veh ID3 (11757404_x_at) / RFU PLEKHG5 (11737974_s_at) / Fold change /veh PLEKHG5 (11737974_s_at) / RFU LRRC4B (11730491_at) / Fold change /veh LRRC4B (11730491_at) / RFU GIMAP4 (11747438_a_at) / Fold change /veh GIMAP4 (11747438_a_at) / RFU KRT8 (11758183_x_at) / Fold change /veh KRT8 (11758183_x_at) / RFU CNN1 (11734310_a_at) / Fold change /veh CNN1 (11734310_a_at) / RFU VPS37D (11726825_at) / Fold change /veh VPS37D (11726825_at) / RFU C10orf10 (11716522_x_at) / Fold change /veh C10orf10 (11716522_x_at) / RFU KIR2DL2 /// KIR2DL4 /// KIR2DL5A /// KIR2DL5B /// KIR2DS1 /// KIR2DS2 /// KIR2DS3 /// KIR2DS4 /// KIR3DL3 /// KIR3DL3 /// KIR3DS1 (11738374_at) / Fold change /veh KIR2DL2 /// KIR2DL4 /// KIR2DL5A /// KIR2DL5B /// KIR2DS1 /// KIR2DS2 /// KIR2DS3 /// KIR2DS4 /// KIR3DL3 /// KIR3DL3 /// KIR3DS1 (11738374_at) / RFU C1QL1 (11718748_at) / Fold change /veh C1QL1 (11718748_at) / RFU TMPRSS4 (11747572_a_at) / Fold change /veh TMPRSS4 (11747572_a_at) / RFU HAMP (11756126_x_at) / Fold change /veh HAMP (11756126_x_at) / RFU RNFT2 (11725882_a_at) / Fold change /veh RNFT2 (11725882_a_at) / RFU NR4A2 (11747474_a_at) / Fold change /veh NR4A2 (11747474_a_at) / RFU ABCC12 (11746883_a_at) / Fold change /veh ABCC12 (11746883_a_at) / RFU TMEM136 (11760407_x_at) / Fold change /veh TMEM136 (11760407_x_at) / RFU CLDN22 /// WWC2 (11732394_at) / Fold change /veh CLDN22 /// WWC2 (11732394_at) / RFU HLA-DPB1 (11760878_x_at) / Fold change /veh HLA-DPB1 (11760878_x_at) / RFU SPINT1 (11716480_a_at) / Fold change /veh SPINT1 (11716480_a_at) / RFU GAP43 (11754022_s_at) / Fold change /veh GAP43 (11754022_s_at) / RFU A4GNT (11735810_at) / Fold change /veh A4GNT (11735810_at) / RFU PRB3 (11715151_x_at) / Fold change /veh PRB3 (11715151_x_at) / RFU TUBB4B (11761932_at) / Fold change /veh TUBB4B (11761932_at) / RFU CAPN14 (11732068_a_at) / Fold change /veh CAPN14 (11732068_a_at) / RFU TMCC2 (11721928_a_at) / Fold change /veh TMCC2 (11721928_a_at) / RFU IRGQ (11745062_a_at) / Fold change /veh IRGQ (11745062_a_at) / RFU FAM174B (11720279_a_at) / Fold change /veh FAM174B (11720279_a_at) / RFU TMPRSS4 (11748680_a_at) / Fold change /veh TMPRSS4 (11748680_a_at) / RFU FAM212B (11763350_a_at) / Fold change /veh FAM212B (11763350_a_at) / RFU PLEKHG5 (11743358_a_at) / Fold change /veh PLEKHG5 (11743358_a_at) / RFU ZSCAN30 (11745921_a_at) / Fold change /veh ZSCAN30 (11745921_a_at) / RFU CMKLR1 (11741424_a_at) / Fold change /veh CMKLR1 (11741424_a_at) / RFU LOC101060620 /// MAPK8IP1 (11723275_at) / Fold change /veh LOC101060620 /// MAPK8IP1 (11723275_at) / RFU SPTSSB (11747773_x_at) / Fold change /veh SPTSSB (11747773_x_at) / RFU PRSS12 (11739890_at) / Fold change /veh PRSS12 (11739890_at) / RFU BIN1 (11741810_x_at) / Fold change /veh BIN1 (11741810_x_at) / RFU WNT11 (11732464_a_at) / Fold change /veh WNT11 (11732464_a_at) / RFU C10orf10 (11716521_a_at) / Fold change /veh C10orf10 (11716521_a_at) / RFU C5orf56 (11738089_at) / Fold change /veh C5orf56 (11738089_at) / RFU CYB561 (11721691_x_at) / Fold change /veh CYB561 (11721691_x_at) / RFU ANKRD19P (11752326_a_at) / Fold change /veh ANKRD19P (11752326_a_at) / RFU OR2T12 /// OR2T33 /// OR2T8 (11738714_s_at) / Fold change /veh OR2T12 /// OR2T33 /// OR2T8 (11738714_s_at) / RFU VCAN (11748164_a_at) / Fold change /veh VCAN (11748164_a_at) / RFU JSRP1 (11732532_at) / Fold change /veh JSRP1 (11732532_at) / RFU KRTAP10-11 (11738290_x_at) / Fold change /veh KRTAP10-11 (11738290_x_at) / RFU MYO3A (11730013_a_at) / Fold change /veh MYO3A (11730013_a_at) / RFU EBF3 (11725865_a_at) / Fold change /veh EBF3 (11725865_a_at) / RFU CAMK2N1 (11719241_x_at) / Fold change /veh CAMK2N1 (11719241_x_at) / RFU C5orf56 (11738088_a_at) / Fold change /veh C5orf56 (11738088_a_at) / RFU OLFML3 (11715873_a_at) / Fold change /veh OLFML3 (11715873_a_at) / RFU LOC100653217 /// NTM (11731650_a_at) / Fold change /veh LOC100653217 /// NTM (11731650_a_at) / RFU MAPK11 (11762145_a_at) / Fold change /veh MAPK11 (11762145_a_at) / RFU FIZ1 (11724087_x_at) / Fold change /veh FIZ1 (11724087_x_at) / RFU OASL (11726364_x_at) / Fold change /veh OASL (11726364_x_at) / RFU SOX15 (11748057_x_at) / Fold change /veh SOX15 (11748057_x_at) / RFU CD79A (11719716_a_at) / Fold change /veh CD79A (11719716_a_at) / RFU HIST1H1D (11736915_at) / Fold change /veh HIST1H1D (11736915_at) / RFU CASKIN2 (11723855_a_at) / Fold change /veh CASKIN2 (11723855_a_at) / RFU LOC730098 (11760151_x_at) / Fold change /veh LOC730098 (11760151_x_at) / RFU OR4N2 (11742367_at) / Fold change /veh OR4N2 (11742367_at) / RFU PRRT2 (11749266_a_at) / Fold change /veh PRRT2 (11749266_a_at) / RFU SNX32 (11753110_a_at) / Fold change /veh SNX32 (11753110_a_at) / RFU CDHR5 (11726645_a_at) / Fold change /veh CDHR5 (11726645_a_at) / RFU RCAN1 (11760418_a_at) / Fold change /veh RCAN1 (11760418_a_at) / RFU FAM167A (11723789_a_at) / Fold change /veh FAM167A (11723789_a_at) / RFU FAM26E (11764081_at) / Fold change /veh FAM26E (11764081_at) / RFU ISYNA1 (11749810_s_at) / Fold change /veh ISYNA1 (11749810_s_at) / RFU ACY1 (11761880_at) / Fold change /veh ACY1 (11761880_at) / RFU 11764098_at / Fold change /veh 11764098_at / RFU SAMD14 (11745864_x_at) / Fold change /veh SAMD14 (11745864_x_at) / RFU NPB (11741838_a_at) / Fold change /veh NPB (11741838_a_at) / RFU TMPRSS6 (11731388_a_at) / Fold change /veh TMPRSS6 (11731388_a_at) / RFU KRTAP10-2 (11738614_at) / Fold change /veh KRTAP10-2 (11738614_at) / RFU ARHGAP8 /// PRR5-ARHGAP8 (11727945_x_at) / Fold change /veh ARHGAP8 /// PRR5-ARHGAP8 (11727945_x_at) / RFU KRTAP5-7 /// NADSYN1 (11734609_at) / Fold change /veh KRTAP5-7 /// NADSYN1 (11734609_at) / RFU RASL12 (11751679_a_at) / Fold change /veh RASL12 (11751679_a_at) / RFU CDKN2B (11736163_a_at) / Fold change /veh CDKN2B (11736163_a_at) / RFU PRF1 (11729649_at) / Fold change /veh PRF1 (11729649_at) / RFU, ZNF638 /// ZNF638-IT1 / Fold change vs veh, ZNF638 /// ZNF638-IT1 / RFU, PANK3 / Fold change vs veh, PANK3 / RFU, SH3YL1 / Fold change vs veh, SH3YL1 / RFU, ZEB2 / Fold change vs veh, ZEB2 / RFU, NRIP1 / Fold change vs veh, NRIP1 / RFU, PTTG1IP / Fold change vs veh, PTTG1IP / RFU, CAPN2 / Fold change vs veh, CAPN2 / RFU, MED14 / Fold change vs veh, MED14 / RFU, SNORA58 / Fold change vs veh, SNORA58 / RFU, C1orf63 / Fold change vs veh, C1orf63 / RFU, LRRFIP1 / Fold change vs veh, LRRFIP1 / RFU, NDUFAF7 / Fold change vs veh, NDUFAF7 / RFU, SLC12A2 / Fold change vs veh, SLC12A2 / RFU, IBTK / Fold change vs veh, IBTK / RFU, ESF1 / Fold change vs veh, ESF1 / Fold change vs veh, TMEM50B / RFU, TAOK1 / Fold change vs veh, TAOK1 / RFU, ACBD3 / Fold change vs veh, ACBD3 / RFU, TMA16 / Fold change vs veh, TMA16 / RFU, RWDD3 / Fold change vs veh, RWDD3 / RFU, BCAT1 / Fold change vs veh, BCAT1 / RFU, EDEM3 / Fold change vs veh, EDEM3 / RFU, TMEM33 / Fold change vs veh, TMEM33 / RFU, WDR75 / Fold change vs veh, WDR75 / RFU, AHCTF1 / Fold change vs veh, AHCTF1 / RFU, TFRC / Fold change vs veh, TFRC / RFU, ZDHHC17 / Fold change vs veh, ZDHHC17 / RFU, NOM1 / Fold change vs veh, NOM1 / RFU, ARL8B / Fold change vs veh, ARL8B / RFU, ZBTB11 / Fold change vs veh, ZBTB11 / RFU, TAMM41 / Fold change vs veh, TAMM41 / RFU, KIAA1704 /// LOC100996395 / Fold change vs veh, KIAA1704 /// LOC100996395 / RFU, ING1 / Fold change vs veh, ING1 / RFU, TRMT61B / Fold change vs veh, TRMT61B / RFU, FUBP3 / Fold change vs veh, FUBP3 / RFU, TP53 / Fold change vs veh, TP53 / RFU, TNKS2 / Fold change vs veh, TNKS2 / RFU, ZFP14 / Fold change vs veh, ZFP14 / RFU, ACTR2 / Fold change vs veh, ACTR2 / RFU, PPP3R1 / Fold change vs veh, PPP3R1 / RFU, PIK3R1 / Fold change vs veh, PIK3R1 / RFU, HNRNPA1 / Fold change vs veh, HNRNPA1 / RFU, RNF170 / Fold change vs veh, RNF170 / RFU, ZNF28 / Fold change vs veh, ZNF28 / RFU, RNGTT / Fold change vs veh, RNGTT / RFU, OGT / Fold change vs veh, OGT / RFU, BRD1 / Fold change vs veh, BRD1 / RFU, MARS / Fold change vs veh, MARS / RFU, ZNF655 / Fold change vs veh, ZNF655 / RFU, FAHD1 / Fold change vs veh, FAHD1 / RFU, BDP1 / Fold change vs veh, BDP1 / RFU, LRRCC1 / Fold change vs veh, LRRCC1 / RFU, ARID1A / Fold change vs veh, ARID1A / RFU, ZNF146 / Fold change vs veh, ZNF146 / RFU, ZNF330 / Fold change vs veh, ZNF330 / RFU, GPN3 / Fold change vs veh, GPN3 / RFU, C9orf123 / Fold change vs veh, C9orf123 / RFU, N4BP2L2 / Fold change vs veh, N4BP2L2 / RFU, ARFIP1 / Fold change vs veh, ARFIP1 / RFU, FAM179B / Fold change vs veh, FAM179B / RFU, BCL10 / Fold change vs veh, BCL10 / RFU, UHRF1BP1L / Fold change vs veh, UHRF1BP1L / RFU, BET1 / Fold change vs veh, BET1 / RFU, CNOT2 / Fold change vs veh, CNOT2 / RFU, ZNF268 / Fold change vs veh, ZNF268 / Fold change vs veh, ZNF507 / RFU, DGCR2 / Fold change vs veh, DGCR2 / RFU, WDSUB1 / Fold change vs veh, WDSUB1 / Fold change vs veh, HSP90B1 /// MIR3652 / RFU, ADSS / Fold change vs veh, ADSS / RFU, GK / Fold change vs veh, GK / RFU, ZNF148 / Fold change vs veh, ZNF148 / RFU, TAF9 / Fold change vs veh, TAF9 / RFU, SLC1A5 / Fold change vs veh, SLC1A5 / RFU, SLMO2 / Fold change vs veh, SLMO2 / RFU, ABCC4 / Fold change vs veh, ABCC4 / RFU, LOC101060439 /// RAP1B / Fold change vs veh, LOC101060439 /// RAP1B / RFU, RFX7 / Fold change vs veh, RFX7 / RFU, GTPBP10 / Fold change vs veh, GTPBP10 / RFU, CNEP1R1 / Fold change vs veh, CNEP1R1 / RFU, BIVM-ERCC5 /// ERCC5 / Fold change vs veh, BIVM-ERCC5 /// ERCC5 / RFU, ILF3 / Fold change vs veh, ILF3 / RFU 11762660_at / Fold change /veh 11762660_at / RFU VCAN (11757783_s_at) / Fold change /veh VCAN (11757783_s_at) / RFU DDX43 (11728927_at) / Fold change /veh DDX43 (11728927_at) / RFU KRT8 (11758188_x_at) / Fold change /veh KRT8 (11758188_x_at) / RFU NKD1 (11759106_at) / Fold change /veh NKD1 (11759106_at) / RFU SRD5A1 (11742802_a_at) / Fold change /veh SRD5A1 (11742802_a_at) / RFU TPSAB1 /// TPSB2 (11721975_s_at) / Fold change /veh TPSAB1 /// TPSB2 (11721975_s_at) / RFU GSTM3 (11746129_a_at) / Fold change /veh GSTM3 (11746129_a_at) / RFU IL23R (11737362_x_at) / Fold change /veh IL23R (11737362_x_at) / RFU TMEM51 (11727254_a_at) / Fold change /veh TMEM51 (11727254_a_at) / RFU PIWIL2 (11732686_x_at) / Fold change /veh PIWIL2 (11732686_x_at) / RFU ORM1 (11744905_x_at) / Fold change /veh ORM1 (11744905_x_at) / RFU CCDC152 (11743942_at) / Fold change /veh CCDC152 (11743942_at) / RFU ECM1 (11717891_a_at) / Fold change /veh ECM1 (11717891_a_at) / RFU IL23R (11748794_a_at) / Fold change /veh IL23R (11748794_a_at) / RFU TNFAIP8L3 (11732012_x_at) / Fold change /veh TNFAIP8L3 (11732012_x_at) / RFU MBOAT4 (11741988_at) / Fold change /veh MBOAT4 (11741988_at) / RFU 11764193_at / Fold change /veh 11764193_at / RFU TMEM53 (11763286_at) / Fold change /veh TMEM53 (11763286_at) / RFU MAGEB2 (11727129_at) / Fold change /veh MAGEB2 (11727129_at) / RFU TMEM200A (11744735_a_at) / Fold change /veh TMEM200A (11744735_a_at) / RFU CCDC152 (11751479_a_at) / Fold change /veh CCDC152 (11751479_a_at) / RFU FAM211A (11726209_a_at) / Fold change /veh FAM211A (11726209_a_at) / RFU RGS16 (11746705_a_at) / Fold change /veh RGS16 (11746705_a_at) / RFU VCAN (11755009_s_at) / Fold change /veh VCAN (11755009_s_at) / RFU RHOB (11743442_s_at) / Fold change /veh RHOB (11743442_s_at) / RFU RGS16 (11720943_a_at) / Fold change /veh RGS16 (11720943_a_at) / RFU RGS16 (11720944_at) / Fold change /veh RGS16 (11720944_at) / RFU, VPS4B / Fold change vs veh, VPS4B / RFU, CREB1 / Fold change vs veh, CREB1 / RFU, DNAJC13 / Fold change vs veh, DNAJC13 / RFU, GNAQ / Fold change vs veh, GNAQ / RFU, CDK5R1 / Fold change vs veh, CDK5R1 / RFU, ZRANB3 / Fold change vs veh, ZRANB3 / RFU, CUL4A / Fold change vs veh, CUL4A / RFU, CCNY / Fold change vs veh, CCNY / RFU, UFL1 / Fold change vs veh, UFL1 / RFU, COG3 / Fold change vs veh, COG3 / RFU, DIAPH2 / Fold change vs veh, DIAPH2 / RFU, SKA2 / Fold change vs veh, SKA2 / RFU, AFF3 / Fold change vs veh, AFF3 / RFU, LMF1 / Fold change vs veh, LMF1 / RFU, IPO11 / Fold change vs veh, IPO11 / RFU, DFFB / Fold change vs veh, DFFB / RFU, FOXP1 / Fold change vs veh, FOXP1 / RFU, CARD8 / Fold change vs veh, CARD8 / RFU, STRN3 / Fold change vs veh, STRN3 / RFU, ADK / Fold change vs veh, ADK / RFU, RASSF2 / Fold change vs veh, RASSF2 / RFU, WIPF1 / Fold change vs veh, WIPF1 / RFU, LARP1B / Fold change vs veh, LARP1B / RFU, RASA1 / Fold change vs veh, RASA1 / RFU, RB1 / Fold change vs veh, RB1 / RFU, PPFIA1 / Fold change vs veh, PPFIA1 / RFU, MAT2A / Fold change vs veh, MAT2A / RFU, CCT5 / Fold change vs veh, CCT5 / RFU, WDR92 / Fold change vs veh, WDR92 / RFU, CUX1 / Fold change vs veh, CUX1 / RFU, TTC7A / Fold change vs veh, TTC7A / RFU, TMEM135 / Fold change vs veh, TMEM135 / RFU, DEPTOR / Fold change vs veh, DEPTOR / RFU, CPM / Fold change vs veh, CPM / RFU, DNAJB6 / Fold change vs veh, DNAJB6 / RFU, CACNA2D3 / Fold change vs veh, CACNA2D3 / RFU, DTX4 / Fold change vs veh, DTX4 / RFU, TFCP2 / Fold change vs veh, TFCP2 / RFU, GMCL1 /// GMCL1P1 / Fold change vs veh, GMCL1 /// GMCL1P1 / RFU, AEBP2 / Fold change vs veh, AEBP2 / RFU, SNHG1 /// SNORD22 /// SNORD25 /// SNORD26 /// SNORD27 /// SNORD28 /// SNORD29 /// SNORD31 / Fold change vs veh, SNHG1 /// SNORD22 /// SNORD25 /// SNORD26 /// SNORD27 /// SNORD28 /// SNORD29 /// SNORD31 / Fold change (Aza/veh), C12orf56 (ProbeSet 11735607_a_at) / Fold change (ACY-1035/veh), C12orf56 (ProbeSet 11735607_a_at) / Fold change (Aza/veh), FGFR1OP (ProbeSet 11751329_s_at) / Fold change (ACY-1035/veh), FGFR1OP (ProbeSet 11751329_s_at) / Fold change (Aza/veh), VPS36 (ProbeSet 11739960_a_at) / Fold change (ACY-1035/veh), VPS36 (ProbeSet 11739960_a_at) / RFU SYPL1 (11715823_x_at) / Fold change /veh SYPL1 (11715823_x_at) / RFU IGFBP7 (11715501_s_at) / Fold change /veh IGFBP7 (11715501_s_at) / RFU REEP3 (11722064_at) / Fold change /veh REEP3 (11722064_at) / RFU IGLL1 (11728026_x_at) / Fold change /veh IGLL1 (11728026_x_at): dose or concentration left out as unconfirmed
Details: MV-4-11 cells, 48 hours

Nc1ncn([C@@H]2O[C@H](CO)[C@@H](O)[C@H]2O)c(=O)n1 [azacitidine]
Fold change /veh MYO3A (11730013_a_at): 0.99

Reference: PMC5218480 (PLoS ONE, 2017)
